Measured values taken from the NIST ThermoML archive (doi:10.1016/j.tca.2018.01.023).
Several values for one entry are separate records, joined by “and”; a condition that tells them apart may be missing. Equal values may be shown once. Numbers after ± are expanded uncertainties.

Assay: molar heat capacity at constant pressure
Conditions: 101.33 kPa, Crystal, Small sample (50 mg) DSC

[Ca+2].[O]=[Mo](=[O])([O-])[O-] [calcium molybdate(VI)]
Conditions | molar heat capacity at constant pressure
255.5 K | 107.3 ± 4.6 J/K/mol
255.9 K | 107.4 ± 4.6 J/K/mol
256.9 K | 107.5 ± 4.6 J/K/mol
257.9 K | 107.6 ± 4.6 J/K/mol
258.9 K | 107.7 ± 4.6 J/K/mol
259.9 K | 107.8 ± 4.6 J/K/mol
260.9 K | 107.8 ± 4.6 J/K/mol
261.9 K | 107.9 ± 4.6 J/K/mol
262.9 K | 108 ± 4.6 J/K/mol
263.9 K | 108.2 ± 4.6 J/K/mol
264.9 K | 108.3 ± 4.6 J/K/mol
265.9 K | 108.4 ± 4.6 J/K/mol
266.9 K | 108.6 ± 4.6 J/K/mol
267.9 K | 108.8 ± 4.6 J/K/mol
268.9 K | 109 ± 4.6 J/K/mol
269.9 K | 109.2 ± 4.6 J/K/mol
270.9 K | 109.4 ± 4.6 J/K/mol
272 K | 109.6 ± 4.7 J/K/mol
273 K | 109.8 ± 4.7 J/K/mol
274 K | 110 ± 4.7 J/K/mol
275 K | 110.3 ± 4.7 J/K/mol
276 K | 110.5 ± 4.7 J/K/mol
277 K | 110.7 ± 4.7 J/K/mol
278 K | 111 ± 4.7 J/K/mol
279 K | 111.2 ± 4.7 J/K/mol
280 K | 111.5 ± 4.7 J/K/mol
281 K | 111.6 ± 4.7 J/K/mol
282 K | 111.8 ± 4.7 J/K/mol
283 K | 112 ± 4.8 J/K/mol
284 K | 112.2 ± 4.8 J/K/mol
285 K | 112.3 ± 4.8 J/K/mol
286 K | 112.5 ± 4.8 J/K/mol
287 K | 112.7 ± 4.8 J/K/mol
288 K | 112.9 ± 4.8 J/K/mol
289 K | 113 ± 4.8 J/K/mol
290.1 K | 113.2 ± 4.8 J/K/mol
291.1 K | 113.4 ± 4.8 J/K/mol
292.1 K | 113.6 ± 4.8 J/K/mol
293.1 K | 113.8 ± 4.8 J/K/mol
294.1 K | 114 ± 4.8 J/K/mol
295.1 K | 114.1 ± 4.8 J/K/mol
296.1 K | 114.3 ± 4.9 J/K/mol
297.1 K | 114.5 ± 4.9 J/K/mol
298.1 K | 114.6 ± 4.9 J/K/mol
298.15 K | 114.2 ± 4.8 J/K/mol
299.1 K | 114.8 ± 4.9 J/K/mol
300.1 K | 115 ± 4.9 J/K/mol
301.1 K | 115.1 ± 4.9 J/K/mol
302.1 K | 115.3 ± 4.9 J/K/mol
303.1 K | 115.4 ± 4.9 J/K/mol
304.1 K | 115.6 ± 4.9 J/K/mol
305.1 K | 115.7 ± 4.9 J/K/mol
306.1 K | 115.9 ± 4.9 J/K/mol
307.1 K | 116.1 ± 4.9 J/K/mol
308.2 K | 116.2 ± 4.9 J/K/mol
309.2 K | 116.4 ± 4.9 J/K/mol
310 K | 116.5 ± 4.9 J/K/mol
310.2 K | 116.5 ± 4.9 J/K/mol
311.2 K | 116.7 ± 5 J/K/mol
312.2 K | 116.8 ± 5 J/K/mol
313.2 K | 116.9 ± 5 J/K/mol
314.2 K | 117.1 ± 5 J/K/mol
315 K | 117.3 ± 5 J/K/mol
315.2 K | 117.3 ± 5 J/K/mol
316.2 K | 117.4 ± 5 J/K/mol
317.2 K | 117.6 ± 5 J/K/mol
317.4 K | 117.7 ± 5 J/K/mol
318.2 K | 117.8 ± 5 J/K/mol
318.4 K | 118 ± 5 J/K/mol
319.2 K | 117.9 ± 5 J/K/mol
319.4 K | 118.2 ± 5 J/K/mol
320 K | 118.1 ± 5 J/K/mol
320.2 K | 118.1 ± 5 J/K/mol
320.4 K | 118.4 ± 5 J/K/mol
321.2 K | 118.3 ± 5 J/K/mol
321.4 K | 118.5 ± 5 J/K/mol
322.2 K | 118.5 ± 5 J/K/mol
322.4 K | 118.6 ± 5 J/K/mol
323.2 K | 118.6 ± 5 J/K/mol
323.4 K | 118.8 ± 5 J/K/mol
324.2 K | 118.7 ± 5 J/K/mol
324.4 K | 118.9 ± 5 J/K/mol
325 K | 118.8 ± 5 J/K/mol
325.2 K | 118.8 ± 5 J/K/mol
325.4 K | 119 ± 5 J/K/mol
326.2 K | 119 ± 5 J/K/mol
326.4 K | 119.1 ± 5.1 J/K/mol
327.2 K | 119.1 ± 5.1 J/K/mol
327.4 K | 119.2 ± 5.1 J/K/mol
328.2 K | 119.2 ± 5.1 J/K/mol
328.4 K | 119.4 ± 5.1 J/K/mol
329.2 K | 119.3 ± 5.1 J/K/mol
329.4 K | 119.5 ± 5.1 J/K/mol
330 K | 119.5 ± 5.1 J/K/mol
330.2 K | 119.5 ± 5.1 J/K/mol
330.4 K | 119.6 ± 5.1 J/K/mol
331.3 K | 119.7 ± 5.1 J/K/mol
331.4 K | 119.7 ± 5.1 J/K/mol
332.3 K | 119.9 ± 5.1 J/K/mol
332.4 K | 119.8 ± 5.1 J/K/mol
333.3 K | 120 ± 5.1 J/K/mol
333.4 K | 120 ± 5.1 J/K/mol
334.3 K | 120.1 ± 5.1 J/K/mol
334.4 K | 120.1 ± 5.1 J/K/mol
335 K | 120.2 ± 5.1 J/K/mol
335.3 K | 120.2 ± 5.1 J/K/mol
335.4 K | 120.3 ± 5.1 J/K/mol
336.3 K | 120.3 ± 5.1 J/K/mol
336.4 K | 120.4 ± 5.1 J/K/mol
337.3 K | 120.5 ± 5.1 J/K/mol
337.4 K | 120.6 ± 5.1 J/K/mol
338.3 K | 120.6 ± 5.1 J/K/mol
338.4 K | 120.7 ± 5.1 J/K/mol
339.3 K | 120.7 ± 5.1 J/K/mol
339.4 K | 120.9 ± 5.1 J/K/mol
340 K | 120.9 ± 5.1 J/K/mol
340.3 K | 120.8 ± 5.1 J/K/mol
340.4 K | 121 ± 5.1 J/K/mol
341.3 K | 121 ± 5.1 J/K/mol
341.4 K | 121.1 ± 5.1 J/K/mol
342.3 K | 121.2 ± 5.1 J/K/mol
342.4 K | 121.2 ± 5.1 J/K/mol
343.3 K | 121.4 ± 5.2 J/K/mol
343.4 K | 121.4 ± 5.2 J/K/mol
344.3 K | 121.5 ± 5.2 J/K/mol
344.4 K | 121.5 ± 5.2 J/K/mol
345 K | 121.5 ± 5.2 J/K/mol
345.3 K | 121.7 ± 5.2 J/K/mol
345.4 K | 121.6 ± 5.2 J/K/mol
346.3 K | 121.8 ± 5.2 J/K/mol
346.4 K | 121.8 ± 5.2 J/K/mol
347.3 K | 121.9 ± 5.2 J/K/mol
347.4 K | 122 ± 5.2 J/K/mol
348.3 K | 122 ± 5.2 J/K/mol
348.4 K | 122.3 ± 5.2 J/K/mol
349.3 K | 122.1 ± 5.2 J/K/mol
349.4 K | 122.6 ± 5.2 J/K/mol
350 K | 122.2 ± 5.2 J/K/mol
350.3 K | 122.2 ± 5.2 J/K/mol
350.4 K | 122.6 ± 5.2 J/K/mol
351.3 K | 122.3 ± 5.2 J/K/mol
351.4 K | 122.6 ± 5.2 J/K/mol
352.3 K | 122.4 ± 5.2 J/K/mol
352.4 K | 122.5 ± 5.2 J/K/mol
353.3 K | 122.5 ± 5.2 J/K/mol
353.4 K | 122.5 ± 5.2 J/K/mol
354.3 K | 122.7 ± 5.2 J/K/mol
354.4 K | 122.6 ± 5.2 J/K/mol
355 K | 122.8 ± 5.2 J/K/mol
355.3 K | 122.8 ± 5.2 J/K/mol
355.4 K | 122.7 ± 5.2 J/K/mol
356.3 K | 122.9 ± 5.2 J/K/mol
356.4 K | 123 ± 5.2 J/K/mol
357.3 K | 123.1 ± 5.2 J/K/mol
357.4 K | 123.2 ± 5.2 J/K/mol
358.3 K | 123.3 ± 5.2 J/K/mol
358.4 K | 123.4 ± 5.2 J/K/mol
359.3 K | 123.4 ± 5.2 J/K/mol
359.4 K | 123.5 ± 5.2 J/K/mol
360 K | 123.4 ± 5.2 J/K/mol
360.3 K | 123.6 ± 5.2 J/K/mol
360.4 K | 123.6 ± 5.2 J/K/mol
361.4 K | 123.7 ± 5.2 J/K/mol
362.4 K | 123.8 ± 5.3 J/K/mol
363.4 K | 123.9 ± 5.3 J/K/mol
364.4 K | 124.1 ± 5.3 J/K/mol and 124 ± 5.3 J/K/mol
365 K | 124 ± 5.3 J/K/mol
365.4 K | 124.2 ± 5.3 J/K/mol and 124.1 ± 5.3 J/K/mol
366.4 K | 124.3 ± 5.3 J/K/mol and 124.2 ± 5.3 J/K/mol
367.4 K | 124.4 ± 5.3 J/K/mol and 124.3 ± 5.3 J/K/mol
368.4 K | 124.5 ± 5.3 J/K/mol and 124.4 ± 5.3 J/K/mol
369.4 K | 124.6 ± 5.3 J/K/mol
370 K | 124.6 ± 5.3 J/K/mol
370.4 K | 124.7 ± 5.3 J/K/mol
371.4 K | 124.8 ± 5.3 J/K/mol and 124.9 ± 5.3 J/K/mol
372.4 K | 125 ± 5.3 J/K/mol
373.4 K | 125.1 ± 5.3 J/K/mol
374.4 K | 125.2 ± 5.3 J/K/mol
375 K | 125.2 ± 5.3 J/K/mol
375.4 K | 125.3 ± 5.3 J/K/mol
376.4 K | 125.4 ± 5.3 J/K/mol
377.4 K | 125.6 ± 5.3 J/K/mol and 125.5 ± 5.3 J/K/mol
378.4 K | 125.7 ± 5.3 J/K/mol and 125.5 ± 5.3 J/K/mol
379.4 K | 125.9 ± 5.3 J/K/mol and 125.6 ± 5.3 J/K/mol
380 K | 125.8 ± 5.3 J/K/mol
380.4 K | 126 ± 5.3 J/K/mol and 125.7 ± 5.3 J/K/mol
381.4 K | 126.1 ± 5.4 J/K/mol and 125.8 ± 5.3 J/K/mol
382.4 K | 126.2 ± 5.4 J/K/mol and 125.9 ± 5.3 J/K/mol
383.4 K | 126.3 ± 5.4 J/K/mol and 126 ± 5.3 J/K/mol
384.4 K | 126.3 ± 5.4 J/K/mol and 126.2 ± 5.4 J/K/mol
385 K | 126.3 ± 5.4 J/K/mol
385.4 K | 126.4 ± 5.4 J/K/mol and 126.3 ± 5.4 J/K/mol
386.4 K | 126.4 ± 5.4 J/K/mol
387.4 K | 126.5 ± 5.4 J/K/mol
388.4 K | 126.6 ± 5.4 J/K/mol and 126.7 ± 5.4 J/K/mol
389.4 K | 126.8 ± 5.4 J/K/mol
390 K | 126.8 ± 5.4 J/K/mol
390.4 K | 126.9 ± 5.4 J/K/mol and 126.8 ± 5.4 J/K/mol
391.4 K | 127.1 ± 5.4 J/K/mol
391.5 K | 126.9 ± 5.4 J/K/mol
392.4 K | 127.2 ± 5.4 J/K/mol
392.5 K | 127 ± 5.4 J/K/mol
393.4 K | 127.3 ± 5.4 J/K/mol
393.5 K | 127.1 ± 5.4 J/K/mol
394.4 K | 127.4 ± 5.4 J/K/mol
394.5 K | 127.2 ± 5.4 J/K/mol
395 K | 127.4 ± 5.4 J/K/mol
395.4 K | 127.5 ± 5.4 J/K/mol
